# Measurements: the Kinase Knowledgebase extract (Sharma et al. 2016)
# Where “and” joins values, the source holds several entries; their conditions need not be identical. Equal entries are not always repeated.
# Legend:
# [1] = target: PIK3CB (Human) (UniProt P42338); assay: Inhibition of PIK3CB Kinase Activity
# [2] = target: PIK3CD (Human) (UniProt O00329); assay: Inhibition of PIK3CD Kinase Activity
# [3] = target: PIK3CA (human) (UniProt P42336); assay: Inhibition of PIK3CA Kinase Activity
# [4] = target: PIK3CG (human) (UniProt P48736); assay: Inhibition of PIK3CG Kinase Activity
# Chain of PIK3CG (human) (P48736 whole entry, looked up): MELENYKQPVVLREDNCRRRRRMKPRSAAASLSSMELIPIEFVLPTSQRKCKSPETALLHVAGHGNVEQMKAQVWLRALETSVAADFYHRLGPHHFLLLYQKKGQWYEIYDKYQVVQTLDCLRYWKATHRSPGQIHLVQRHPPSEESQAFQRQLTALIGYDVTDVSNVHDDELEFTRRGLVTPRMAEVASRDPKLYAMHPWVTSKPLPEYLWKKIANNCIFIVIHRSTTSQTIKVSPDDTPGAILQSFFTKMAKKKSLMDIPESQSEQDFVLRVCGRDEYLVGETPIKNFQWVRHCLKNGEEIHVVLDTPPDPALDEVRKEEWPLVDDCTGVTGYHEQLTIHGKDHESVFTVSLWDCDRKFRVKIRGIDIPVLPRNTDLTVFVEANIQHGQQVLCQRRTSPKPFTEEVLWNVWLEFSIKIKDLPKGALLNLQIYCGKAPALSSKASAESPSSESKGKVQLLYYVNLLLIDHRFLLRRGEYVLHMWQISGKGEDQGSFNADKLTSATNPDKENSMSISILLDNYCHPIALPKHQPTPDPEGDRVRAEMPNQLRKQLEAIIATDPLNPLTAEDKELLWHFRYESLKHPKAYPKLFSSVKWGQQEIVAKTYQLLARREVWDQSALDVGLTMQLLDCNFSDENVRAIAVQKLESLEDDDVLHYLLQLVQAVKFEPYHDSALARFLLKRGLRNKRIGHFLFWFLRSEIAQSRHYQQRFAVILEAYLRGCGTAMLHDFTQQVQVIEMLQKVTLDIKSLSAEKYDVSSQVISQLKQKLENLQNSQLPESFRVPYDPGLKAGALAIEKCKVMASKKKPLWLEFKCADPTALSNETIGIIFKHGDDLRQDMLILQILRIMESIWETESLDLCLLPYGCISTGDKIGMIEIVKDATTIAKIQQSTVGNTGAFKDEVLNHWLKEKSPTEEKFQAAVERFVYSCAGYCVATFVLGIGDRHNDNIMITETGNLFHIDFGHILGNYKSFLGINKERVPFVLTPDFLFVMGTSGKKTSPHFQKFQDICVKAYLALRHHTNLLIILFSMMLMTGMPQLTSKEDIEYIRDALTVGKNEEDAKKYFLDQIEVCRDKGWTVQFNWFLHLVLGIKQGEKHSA
# Chain of PIK3CA (human) (P42336 whole entry, looked up): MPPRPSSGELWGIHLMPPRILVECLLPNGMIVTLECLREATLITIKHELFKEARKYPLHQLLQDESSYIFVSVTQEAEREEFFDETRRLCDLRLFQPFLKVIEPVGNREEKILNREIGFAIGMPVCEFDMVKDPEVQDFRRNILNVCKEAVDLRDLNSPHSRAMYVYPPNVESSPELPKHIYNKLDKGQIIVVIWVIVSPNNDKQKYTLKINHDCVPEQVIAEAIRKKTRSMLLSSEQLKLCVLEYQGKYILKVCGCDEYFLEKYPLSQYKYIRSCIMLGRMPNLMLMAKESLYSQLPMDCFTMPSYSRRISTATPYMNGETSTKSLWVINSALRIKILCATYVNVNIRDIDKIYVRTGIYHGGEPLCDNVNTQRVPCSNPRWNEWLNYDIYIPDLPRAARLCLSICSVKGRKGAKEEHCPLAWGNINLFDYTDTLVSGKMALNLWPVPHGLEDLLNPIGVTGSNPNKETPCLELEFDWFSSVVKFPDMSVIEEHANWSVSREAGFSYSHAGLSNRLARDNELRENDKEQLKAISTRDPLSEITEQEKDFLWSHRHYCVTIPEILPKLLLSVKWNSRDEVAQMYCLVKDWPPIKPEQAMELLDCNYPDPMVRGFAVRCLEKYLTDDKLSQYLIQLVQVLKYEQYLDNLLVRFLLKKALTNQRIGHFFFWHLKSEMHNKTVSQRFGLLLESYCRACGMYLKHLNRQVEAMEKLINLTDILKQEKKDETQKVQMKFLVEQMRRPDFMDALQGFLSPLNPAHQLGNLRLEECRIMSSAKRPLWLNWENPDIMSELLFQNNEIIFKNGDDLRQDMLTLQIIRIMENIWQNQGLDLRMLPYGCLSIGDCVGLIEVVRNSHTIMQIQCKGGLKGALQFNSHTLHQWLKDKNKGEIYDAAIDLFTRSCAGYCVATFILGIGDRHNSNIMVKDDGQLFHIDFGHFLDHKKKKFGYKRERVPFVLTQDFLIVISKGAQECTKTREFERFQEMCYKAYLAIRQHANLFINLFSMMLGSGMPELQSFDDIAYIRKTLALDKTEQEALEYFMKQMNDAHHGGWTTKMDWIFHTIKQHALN
# Chain of PIK3CD (Human) (O00329 whole entry, looked up): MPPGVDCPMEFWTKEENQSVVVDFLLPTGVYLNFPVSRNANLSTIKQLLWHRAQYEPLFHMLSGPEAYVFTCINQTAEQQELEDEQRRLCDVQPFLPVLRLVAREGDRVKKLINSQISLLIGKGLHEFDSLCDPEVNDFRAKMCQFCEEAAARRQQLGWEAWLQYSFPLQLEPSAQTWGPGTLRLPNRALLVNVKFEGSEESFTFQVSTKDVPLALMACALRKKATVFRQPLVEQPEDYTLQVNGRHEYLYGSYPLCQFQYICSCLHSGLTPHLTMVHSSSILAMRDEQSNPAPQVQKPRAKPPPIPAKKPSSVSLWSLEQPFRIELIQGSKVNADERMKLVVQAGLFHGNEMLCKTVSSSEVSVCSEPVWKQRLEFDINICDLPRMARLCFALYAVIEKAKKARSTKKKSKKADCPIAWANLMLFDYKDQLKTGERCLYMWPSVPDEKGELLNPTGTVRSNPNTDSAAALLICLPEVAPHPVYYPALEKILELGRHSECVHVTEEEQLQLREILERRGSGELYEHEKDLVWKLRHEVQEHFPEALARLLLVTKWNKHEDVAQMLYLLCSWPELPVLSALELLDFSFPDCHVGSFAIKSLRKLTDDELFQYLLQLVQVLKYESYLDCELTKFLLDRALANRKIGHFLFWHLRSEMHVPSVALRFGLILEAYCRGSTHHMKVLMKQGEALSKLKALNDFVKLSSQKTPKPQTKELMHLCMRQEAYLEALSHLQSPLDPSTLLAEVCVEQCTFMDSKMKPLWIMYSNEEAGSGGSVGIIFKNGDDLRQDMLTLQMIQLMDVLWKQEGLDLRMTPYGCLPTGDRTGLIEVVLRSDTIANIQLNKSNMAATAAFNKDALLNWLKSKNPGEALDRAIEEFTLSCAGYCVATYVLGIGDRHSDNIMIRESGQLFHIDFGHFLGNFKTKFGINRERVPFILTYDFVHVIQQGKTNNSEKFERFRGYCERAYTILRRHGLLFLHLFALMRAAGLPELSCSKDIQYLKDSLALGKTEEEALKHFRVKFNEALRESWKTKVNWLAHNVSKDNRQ
# Chain of PIK3CB (Human) (P42338 whole entry, looked up): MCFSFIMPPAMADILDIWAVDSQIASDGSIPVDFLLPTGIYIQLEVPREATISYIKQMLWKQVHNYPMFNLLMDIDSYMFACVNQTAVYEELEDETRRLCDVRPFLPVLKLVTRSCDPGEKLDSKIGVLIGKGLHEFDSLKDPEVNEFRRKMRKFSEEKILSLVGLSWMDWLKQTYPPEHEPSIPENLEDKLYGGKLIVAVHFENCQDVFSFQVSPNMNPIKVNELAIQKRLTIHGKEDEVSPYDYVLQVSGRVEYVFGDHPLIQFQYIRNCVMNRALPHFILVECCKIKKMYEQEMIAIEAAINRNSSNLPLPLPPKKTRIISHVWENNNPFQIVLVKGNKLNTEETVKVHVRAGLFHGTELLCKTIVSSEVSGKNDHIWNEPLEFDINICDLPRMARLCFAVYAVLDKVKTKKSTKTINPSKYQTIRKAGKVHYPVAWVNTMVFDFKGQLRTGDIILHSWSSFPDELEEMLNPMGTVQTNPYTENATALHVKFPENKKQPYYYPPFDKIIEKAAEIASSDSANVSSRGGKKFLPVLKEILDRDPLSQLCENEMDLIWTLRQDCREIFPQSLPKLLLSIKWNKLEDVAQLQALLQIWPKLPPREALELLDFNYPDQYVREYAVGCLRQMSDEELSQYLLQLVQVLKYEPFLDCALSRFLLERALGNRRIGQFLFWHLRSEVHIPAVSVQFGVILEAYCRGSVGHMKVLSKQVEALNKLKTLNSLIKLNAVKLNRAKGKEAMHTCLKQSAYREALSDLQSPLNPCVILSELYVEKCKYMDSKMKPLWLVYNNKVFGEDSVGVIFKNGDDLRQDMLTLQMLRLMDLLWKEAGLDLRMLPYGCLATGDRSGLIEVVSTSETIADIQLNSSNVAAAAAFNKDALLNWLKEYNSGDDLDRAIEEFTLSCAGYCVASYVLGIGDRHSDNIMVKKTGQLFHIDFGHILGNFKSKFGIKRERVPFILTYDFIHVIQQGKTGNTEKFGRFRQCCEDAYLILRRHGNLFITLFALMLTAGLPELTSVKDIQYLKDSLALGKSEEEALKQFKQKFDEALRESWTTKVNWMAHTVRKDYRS
smiles,measurement,setting,value
CC(=O)Nc1cccc(-c2nc(N3CCOCC3)c3oc4ncccc4c3n2)c1,IC50,[1],2650 nM
same,IC50,[2],333 nM
same,IC50,[3],301 nM
same,IC50,[4],9070 nM
Cc1cc(C(C)Nc2ccccc2)c2nc(N3CCOCC3)cc(=O)n2c1 (stereo unspecified),IC50,[3],5000 nM and 784 nM
same,IC50,[4],3500 nM and 3240 nM
